The values below come from PMC6010046, “Evaluation of polyphenols from Broussonetia papyrifera as coronavirus protease inhibitors” (Journal of Enzyme Inhibition and Medicinal Chemistry, 2017).

The target in one data set is SARS-CoV 3CL^pro (Severe acute respiratory syndrome coronavirus, UniProt P0C6X7). Nature of the data set: biochemical.
Data set [1] addresses T1, SARS-CoV PL^pro (Severe acute respiratory syndrome coronavirus, UniProt P0C6X7). Format: biochemical.
For the next data set, the target named is MERS-CoV 3CL^pro (Middle East respiratory syndrome-related coronavirus, UniProt K9N7C7). Nature of the data set: biochemical.
For the next data set, the target named is MERS-CoV PL^pro (Middle East respiratory syndrome-related coronavirus, UniProt K9N7C7). As to the kind of experiment: biochemical.
Data set [2] concerns the target T1, SARS-CoV PL^pro. As to the kind of experiment: biochemical. Format: binding. Particulars: for kon: read-out: association rate constant ka; for koff: read-out: dissociation rate constant kd.

Entries after “also recorded” stand apart in the source; their conditions may differ. Where two headings read alike, the source gives them in different places.

MERS-CoV 3CL^pro, sequence (K9N7C7 3247-3553 limits assumed): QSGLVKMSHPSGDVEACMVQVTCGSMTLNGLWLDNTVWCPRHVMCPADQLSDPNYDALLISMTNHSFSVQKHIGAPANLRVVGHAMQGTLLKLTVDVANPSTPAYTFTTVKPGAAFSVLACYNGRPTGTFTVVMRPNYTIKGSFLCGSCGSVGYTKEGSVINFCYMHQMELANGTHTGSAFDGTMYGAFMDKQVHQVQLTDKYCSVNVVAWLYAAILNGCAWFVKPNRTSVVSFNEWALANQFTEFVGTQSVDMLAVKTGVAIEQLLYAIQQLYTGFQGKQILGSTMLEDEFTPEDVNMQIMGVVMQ
MERS-CoV PL^pro, sequence (K9N7C7 1436-1803 limits assumed): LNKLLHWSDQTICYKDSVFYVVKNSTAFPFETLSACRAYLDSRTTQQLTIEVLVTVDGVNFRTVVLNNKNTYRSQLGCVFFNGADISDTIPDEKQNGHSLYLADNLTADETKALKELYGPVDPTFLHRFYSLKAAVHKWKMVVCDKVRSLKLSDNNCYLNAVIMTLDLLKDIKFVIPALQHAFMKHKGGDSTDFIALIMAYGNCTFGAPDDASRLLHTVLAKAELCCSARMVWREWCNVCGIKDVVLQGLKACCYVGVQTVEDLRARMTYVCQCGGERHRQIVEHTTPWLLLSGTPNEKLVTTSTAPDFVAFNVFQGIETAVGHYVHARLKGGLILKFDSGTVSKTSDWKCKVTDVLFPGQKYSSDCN

The IC50 is the concentration needed to halve the response being measured. As usually defined, the melting point is the temperature of the solid-liquid transition. For the molecule `CC(C)=CCc1c([C@@H]2CCc3ccc(O)cc3O2)cc2c(c1O)OC(C)(C)C(O)C2O` (stereo partly drawn) [Compound 8, broussoflavan A], the melting point lay in the range of 238 to 240 °C. Also, the concentration for half-maximal inhibition (IC50) against SARS-CoV 3CL^pro amounted to 92.4 ± 2.1 µM. Also, the “SARS-CoV PL^pro, LRLRGG-AMC, Inhibition type” value at SARS-CoV PL^pro [1] is “Noncompetitive (23.4 ± 1.6)”. In addition, the IC50 at MERS-CoV 3CL^pro is 126 ± 17.4 µM. The same molecule returned an IC50 on MERS-CoV PL^pro of 49.1 ± 7.5 µM.

As usually defined, the Kd is a measure of binding affinity in units of concentration. Read a high Kd as a looser complex. In the case of `CC(C)=CCc1cc(C(=O)/C=C/c2ccc(O)cc2)c(O)cc1O` [Compound 1, broussochalcone B], the 50% inhibitory concentration (IC50) on SARS-CoV 3CL^pro is 57.8 ± 0.5 µM. Also, the “SARS-CoV PL^pro, LRLRGG-AMC, Inhibition type” value at SARS-CoV PL^pro [1] is “Noncompetitive (6.6 ± 0.5)”. The molecule further yielded an IC50 on MERS-CoV 3CL^pro of 27.9 ± 1.2 µM. At MERS-CoV PL^pro, this molecule gave an IC50 of 113 ± 10.1 µM. Besides, at SARS-CoV PL^pro [2], the dissociation constant (Kd) was determined as 74 µM, the kon worked out at 56 M⁻¹ s⁻¹ and the koff turned out to be 0.00412 s⁻¹.

As to `CC(C)=CCc1cc(C2CCc3ccc(O)cc3O2)cc(O)c1O` (stereo not drawn) [Compound 5, 3′-(3-methylbut-2-enyl)-3′,4′,7-trihydroxyflavane], the IC50 against SARS-CoV 3CL^pro stood at 30.2 ± 6.8 µM; against MERS-CoV 3CL^pro, 34.7 ± 2 µM; at MERS-CoV PL^pro it was 48.8 ± 6.6 µM. Moreover, the “SARS-CoV PL^pro, LRLRGG-AMC, Inhibition type” value at SARS-CoV PL^pro [1] is on record as “Noncompetitive (15.9 ± 0.8)”.

Turning to `O=c1c(O)c(-c2ccc(O)c(O)c2)oc2cc(O)cc(O)c12` [Quercetin, quercetin, reference compound], on SARS-CoV PL^pro [1], the “SARS-CoV PL^pro, LRLRGG-AMC, Inhibition type” value was “Noncompetitive (7.0 ± 0.7)”. The same molecule gave an IC50 at MERS-CoV 3CL^pro of 34.8 ± 1.2 µM.

`O=c1c(O[C@@H]2O[C@H](CO)[C@H](O)[C@H](O)[C@H]2O)c(-c2ccc(O)c(O)c2)oc2cc(O)cc(O)c12` [Quercetin-β-galactoside, quercetin-β-galactoside, reference compound]: on SARS-CoV PL^pro [1], the “SARS-CoV PL^pro, LRLRGG-AMC, Inhibition type” value is “Noncompetitive (56.1 ± 2.5)”. Moreover, the IC50 at MERS-CoV 3CL^pro (pH 6, read-out: MERS-CoV 3CL^pro, IC50) was 68 ± 2.4 µM; at MERS-CoV PL^pro (pH 5.5, read-out: MERS-CoV PL^pro, IC50) it was 129 ± 14.5 µM.

`CC(C)=CCc1cc(-c2oc3cc(O)c(CC=C(C)C)c(O)c3c(=O)c2O)cc(O)c1O` [Compound 4, papyriflavonol A] displayed a melting point of 202 to 204 °C. At SARS-CoV 3CL^pro, this molecule came in with an IC50 of 104 ± 17.4 µM. Besides, on SARS-CoV PL^pro [1], the “SARS-CoV PL^pro, LRLRGG-AMC, Inhibition type” value is reported as “noncompetitive inhibition; also recorded: Noncompetitive (5.9 ± 0.4)”. In addition, half-maximal inhibition against MERS-CoV 3CL^pro (IC50) was put at 64.5 ± 4.9 µM. The molecule also displayed an IC50 at MERS-CoV PL^pro of 113 ± 7.3 µM. For the same molecule, on SARS-CoV PL^pro [2], the Kd stood at 212 µM, the kon stood at 21 M⁻¹ s⁻¹ and the koff worked out at 0.00445 s⁻¹.

Take `CC(C)=CCc1c([C@@H]2CCc3ccc(O)cc3O2)cc2c(c1O)OC(C)(C)C=C2` [Compound 7, kazinol B]: the IC50 against SARS-CoV 3CL^pro is 233 ± 6.7 µM; against MERS-CoV PL^pro, 94.9 ± 13.1 µM. Moreover, the “SARS-CoV PL^pro, LRLRGG-AMC, Inhibition type” value on SARS-CoV PL^pro [1] is listed as “Noncompetitive (36.7 ± 2.7)”.

At SARS-CoV 3CL^pro, `COc1cc(O)ccc1CCCc1cc(O)c(O)c(CC=C(C)C)c1CC=C(C)C` [Compound 10, kazinol J] had an IC50 of 64.2 ± 1.7 µM. On SARS-CoV PL^pro [1], the “SARS-CoV PL^pro, LRLRGG-AMC, Inhibition type” value is “Noncompetitive (10.7 ± 0.9)”. Also, on MERS-CoV 3CL^pro, the 50% inhibitory concentration (IC50) was determined as 109 ± 3.7 µM. The molecule also displayed an IC50 on MERS-CoV PL^pro of 55 ± 1.3 µM. At SARS-CoV PL^pro [2], the equilibrium dissociation constant (Kd) was 804 µM, the kon was determined as 7.3 M⁻¹ s⁻¹ and the koff amounted to 0.00591 s⁻¹.

Turning to `CC(C)=CCc1cc(C(=O)/C=C/c2ccc(O)c(O)c2)c(O)cc1O` [Compound 2, broussochalcone A], the IC50 against SARS-CoV 3CL^pro is 88.1 ± 13 µM; on MERS-CoV 3CL^pro, 36.2 ± 0.4 µM; against MERS-CoV PL^pro, 42.1 ± 5 µM. Also, the “SARS-CoV PL^pro, LRLRGG-AMC, Inhibition type” value at SARS-CoV PL^pro [1] is “noncompetitive inhibition; also recorded: Noncompetitive (8.0 ± 0.4)”. For the same molecule, on SARS-CoV PL^pro [2], binding was put at a Kd of 130 µM. Further, the kon on SARS-CoV PL^pro [2] was 29.9 M⁻¹ s⁻¹. The koff at SARS-CoV PL^pro [2] amounted to 0.00388 s⁻¹.

In the case of `CC(C)=CCc1c(CCCc2ccc(O)cc2O)cc(O)c(O)c1CC=C(C)C` [Compound 9, kazinol F], the concentration for half-maximal inhibition (IC50) against SARS-CoV 3CL^pro was 43.3 ± 10.4 µM; against MERS-CoV 3CL^pro, 135 ± 5.1 µM; against MERS-CoV PL^pro, 39.5 ± 5.1 µM. Also, the “SARS-CoV PL^pro, LRLRGG-AMC, Inhibition type” value on SARS-CoV PL^pro [1] is recorded as “Noncompetitive (12.1 ± 0.7)”.

In the case of `O=c1c(O)c(-c2ccc(O)cc2)oc2cc(O)cc(O)c12` [Kaempferol, kaempferol, reference compound], the IC50 against SARS-CoV 3CL^pro was 116 ± 7.1 µM; at MERS-CoV 3CL^pro, 35.3 ± 5.3 µM; on MERS-CoV PL^pro, 206.6 ± 1.7 µM. Moreover, the “SARS-CoV PL^pro, LRLRGG-AMC, Inhibition type” value on SARS-CoV PL^pro [1] is recorded as “Noncompetitive (13.7 ± 0.8)”.

In the case of `CC(C)=CCc1cc([C@@H]2CCc3ccc(O)cc3O2)c(CC=C(C)C)c(O)c1O` [Compound 6, kazinol A], the IC50 came to 84.8 ± 10.4 µM on SARS-CoV 3CL^pro and 88.5 ± 3.9 µM against MERS-CoV PL^pro. The “SARS-CoV PL^pro, LRLRGG-AMC, Inhibition type” value on SARS-CoV PL^pro [1] was “Noncompetitive (40.5 ± 3.4)”.

Take `CC1(C)C=Cc2cc(C(=O)/C=C/c3ccc(O)cc3)c(O)cc2O1` [Compound 3, 4-hydroxyisolonchocarpin]: the concentration for half-maximal inhibition (IC50) at SARS-CoV 3CL^pro was determined as 203 ± 3.9 µM; at MERS-CoV 3CL^pro, 194 ± 15.6 µM; against MERS-CoV PL^pro, 172 ± 10.2 µM. The “SARS-CoV PL^pro, LRLRGG-AMC, Inhibition type” value at SARS-CoV PL^pro [1] is reported as “Noncompetitive (27.7 ± 1.7)”.

Consider `O=C(/C=C/c1ccc(O)cc1)c1ccc(O)cc1O` [Isoliquiritigenin, isoliquiritigenin, reference compound], for which inhibition against SARS-CoV 3CL^pro was half-maximal at 61.9 ± 11 µM (IC50). Also, the “SARS-CoV PL^pro, LRLRGG-AMC, Inhibition type” value at SARS-CoV PL^pro [1] is “Noncompetitive (23.0 ± 0.9)”.
